Test results published in patent publication US20090227781A1, “Glycolipid Derivative and Drug Containing the Same as Active Component” (priority 2005, published 2009).

How the values were obtained:
[1] = tested on: collagen induced arthritis (CIA); details: Nonpatent Documents 2 to 4, Patent Document 2; cited from earlier work
[2] = tested on: experimental autoimmune encephalomyelitis (EAE); details: Nonpatent Documents 2 to 4, Patent Document 2; cited from earlier work
NKT cells = test: Effect of compound on NKT cells: liver mononuclear cells incubated with compound for 48 hours; type: cell-based, C57BL/6J mice; details: 48 hours incubation; FIG. 4
Description: (§1) Mononuclear cells were separated from the livers of C57BL/6J mice (8 weeks old, female) and incubated with the compound for 48 hours. […] The reaction by α-GC and slight intake of tritium and the slight amount of cytokine production observed for the compound at 30 ng/ml were not seen in Jα18 gene-deficient mice with no NKT cells, and, therefore, these reactions were confirmed to be NKT cell-dependent reactions (see FIG. 4).

mononuclear cells = test: Effect on liver mononuclear cells of Jα18 gene-deficient mice with no NKT cells; type: cell-based
Description: as §1

SMILES	effectiveness in CIA, animal model of rheumatoid arthritis [1]	effectiveness in EAE, animal model of multiple sclerosis [2]	IFN-γ production (ELISA, supernatant) (NKT cells)	IL-4 production (ELISA, supernatant) (NKT cells)	cell proliferation (intake of tritium thymidine) (NKT cells)	reaction (tritium intake, cytokine production) in mice with no NKT cells (mononuclear cells)
CCCCCCCCCCCCCCCCCCCCCCCC(=O)N[C@@H](COC1OC(CO)C(O)C(O)C1O)[C@H](O)[C@H](O)CCCCC (stereo partly drawn) [OCH]	high effectiveness	high effectiveness				
CCCCCCCCCCCCCCCCCCCCCCCCCC(=O)N[C@@H](COC1OC(CO)C(O)C(O)C1O)[C@H](O)[C@H](O)CCCCCCCCCCCCCC (stereo partly drawn) [α-GC, α-galactosyl ceramide]			caused	caused	caused	not seen
